Test results as given in US12187701B2, “Taire family kinase inhibitors and uses thereof” (Dana-Farber Cancer Institute, Inc., priority 2018, dated 2025).
pIC50: −log10 of the molar value. Read-outs that look alike come from different tables or passages of the source.

Experiments:
CDK2/CycA = CDK2/CycA (Homo sapiens (Human), UniProt P24941); assay: Z'LYTE kinase assay for CDK2/CycA at Km ATP; assay type: biochemical
HCT116 cells = assay: Antiproliferation assay, Cell Titer Glo, 72 hours; assay type: cell-based
Outline: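 HCT116 cells seeded at 750 cells/well in McCoy's 5A with 10% FBS and exposed to four-fold compound dilution series for 72 h at 37 °C, 5% CO2. Viability by CellTiter-Glo luminescence, quadruplicate; IC50 by non-linear regression.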

Cdk14/CycY = Cdk14/CycY (Homo sapiens (Human), UniProt O94921); assay: Lanthascreen Eu kinase binding assay for Cdk14/CycY with 30 minute pre-incubation; conditions: 30 minute pre-incubation of kinase with compound; for pIC50: read-out: IC50 CDK14 binding by Lanthascreen
Chain of Cdk14/CycY (O94921 whole entry): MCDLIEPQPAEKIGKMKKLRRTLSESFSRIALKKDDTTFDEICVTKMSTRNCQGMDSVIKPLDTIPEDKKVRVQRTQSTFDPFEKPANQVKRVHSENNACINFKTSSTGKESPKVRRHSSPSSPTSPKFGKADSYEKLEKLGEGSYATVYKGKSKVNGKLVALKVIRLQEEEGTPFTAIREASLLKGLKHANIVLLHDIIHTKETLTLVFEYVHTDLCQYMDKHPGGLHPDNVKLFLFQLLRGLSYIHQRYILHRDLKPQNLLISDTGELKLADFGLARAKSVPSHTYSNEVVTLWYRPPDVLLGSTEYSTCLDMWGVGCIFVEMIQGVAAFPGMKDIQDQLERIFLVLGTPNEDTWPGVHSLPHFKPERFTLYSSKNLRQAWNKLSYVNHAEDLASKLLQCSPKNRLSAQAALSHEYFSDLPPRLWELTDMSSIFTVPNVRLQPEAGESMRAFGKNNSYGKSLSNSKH
Chain of Cdk14/CycY (Q8ND76 whole entry partner): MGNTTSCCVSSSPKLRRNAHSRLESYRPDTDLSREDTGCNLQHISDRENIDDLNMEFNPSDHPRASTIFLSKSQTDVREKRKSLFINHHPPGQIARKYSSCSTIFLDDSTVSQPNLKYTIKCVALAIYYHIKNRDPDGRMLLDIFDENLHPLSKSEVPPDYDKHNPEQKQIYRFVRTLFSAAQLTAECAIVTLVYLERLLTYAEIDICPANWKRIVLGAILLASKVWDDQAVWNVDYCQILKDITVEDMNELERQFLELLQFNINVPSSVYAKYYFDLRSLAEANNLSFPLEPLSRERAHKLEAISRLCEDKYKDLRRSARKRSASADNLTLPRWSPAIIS
Experimental: Lanthascreen Eu kinase binding assays were conducted for Cdk14/CycY largely as performed in the commercial assay service by Life Technologies, but included a 30 minute pre-incubation step of the kinase with candidate compounds to facilitate covalent bond formation.

Cdk14 [1] = molecular target: T1, Cdk14 (Homo sapiens (Human), UniProt O94921); assay: Cellular pull down with biotinylated probe, CDK14; assay type: cell-based; conditions: HEK293 cells overexpressing Cdk14-flag, 4 hours treatment; for Cellular Potency by Pulldown: some cells print Y or N instead of a concentration;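 for all read-outs here: biotinylated probe used at 1 µM in lysates overnight at 4 °C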
Experimental: HEK293 cells overexpressing a Cdk14-flag fusion protein were treated with candidate compounds for 4 hours. Cells were washed with PBS, harvested and lysed in Pierce IP buffer with protease and phosphatase inhibitors (Roche). […] To enhance pulldown, lysates were incubated at room temperature for an additional 2 hours. […] Beads were then washed 3 times with Pierce IP buffer, then boiled at 95° C. for 5 minutes in 2× LDS+10% β-mercaptoethanol. Proteins of interest engaged by the biotinylated compound were then assessed using western blotting.
Target sequence in this assay (O94921 whole entry, the tested form may be a part): as the sequence (O94921 whole entry) above

Cdk14 [2] = molecular target: T1, Cdk14; assay: Cdk14 33P kinase assay (Reaction Biology Corp.); assay type: biochemical
Target sequence in this assay (O94921 whole entry, looked up, the tested form may be a part): as the sequence (O94921 whole entry) above
Target sequence in this assay (Q8ND76 whole entry partner, looked up, the tested form may be a part): as the sequence (Q8ND76 whole entry partner) above

CDK16/CycY = CDK16/CycY (Homo sapiens (Human), UniProt Q00536); assay: Lanthascreen Eu kinase binding assay for CDK16/CycY
Chain of CDK16/CycY (Q00536 whole entry): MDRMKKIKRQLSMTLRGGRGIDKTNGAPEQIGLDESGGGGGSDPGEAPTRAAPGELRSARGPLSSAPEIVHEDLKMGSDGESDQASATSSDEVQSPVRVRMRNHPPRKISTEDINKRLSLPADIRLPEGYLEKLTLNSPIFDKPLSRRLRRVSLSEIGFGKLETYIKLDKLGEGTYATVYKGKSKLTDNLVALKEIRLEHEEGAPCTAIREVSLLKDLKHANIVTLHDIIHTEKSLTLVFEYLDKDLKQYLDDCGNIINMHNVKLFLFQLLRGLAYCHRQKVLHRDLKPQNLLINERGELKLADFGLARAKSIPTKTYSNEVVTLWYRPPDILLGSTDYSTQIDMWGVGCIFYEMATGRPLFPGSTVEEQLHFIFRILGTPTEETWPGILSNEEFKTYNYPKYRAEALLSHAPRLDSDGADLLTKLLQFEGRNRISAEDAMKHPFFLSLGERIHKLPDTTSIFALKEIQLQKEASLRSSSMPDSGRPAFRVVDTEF
Chain of CDK16/CycY (Q8ND76 whole entry partner): as the sequence (Q8ND76 whole entry partner) above
Experimental: Lanthascreen Eu kinase binding assays were conducted for CDK16/CycY at Life Technologies.

CDK12 = CDK12 (Homo sapiens (Human), UniProt Q9NYV4); assay: Cellular pull down with biotinylated probe, CDK12; assay type: cell-based; conditions: HEK293 cells, 4 hours treatment; Y/N/slight
Chain of CDK12 (Q9NYV4 whole entry, the tested form may be a part): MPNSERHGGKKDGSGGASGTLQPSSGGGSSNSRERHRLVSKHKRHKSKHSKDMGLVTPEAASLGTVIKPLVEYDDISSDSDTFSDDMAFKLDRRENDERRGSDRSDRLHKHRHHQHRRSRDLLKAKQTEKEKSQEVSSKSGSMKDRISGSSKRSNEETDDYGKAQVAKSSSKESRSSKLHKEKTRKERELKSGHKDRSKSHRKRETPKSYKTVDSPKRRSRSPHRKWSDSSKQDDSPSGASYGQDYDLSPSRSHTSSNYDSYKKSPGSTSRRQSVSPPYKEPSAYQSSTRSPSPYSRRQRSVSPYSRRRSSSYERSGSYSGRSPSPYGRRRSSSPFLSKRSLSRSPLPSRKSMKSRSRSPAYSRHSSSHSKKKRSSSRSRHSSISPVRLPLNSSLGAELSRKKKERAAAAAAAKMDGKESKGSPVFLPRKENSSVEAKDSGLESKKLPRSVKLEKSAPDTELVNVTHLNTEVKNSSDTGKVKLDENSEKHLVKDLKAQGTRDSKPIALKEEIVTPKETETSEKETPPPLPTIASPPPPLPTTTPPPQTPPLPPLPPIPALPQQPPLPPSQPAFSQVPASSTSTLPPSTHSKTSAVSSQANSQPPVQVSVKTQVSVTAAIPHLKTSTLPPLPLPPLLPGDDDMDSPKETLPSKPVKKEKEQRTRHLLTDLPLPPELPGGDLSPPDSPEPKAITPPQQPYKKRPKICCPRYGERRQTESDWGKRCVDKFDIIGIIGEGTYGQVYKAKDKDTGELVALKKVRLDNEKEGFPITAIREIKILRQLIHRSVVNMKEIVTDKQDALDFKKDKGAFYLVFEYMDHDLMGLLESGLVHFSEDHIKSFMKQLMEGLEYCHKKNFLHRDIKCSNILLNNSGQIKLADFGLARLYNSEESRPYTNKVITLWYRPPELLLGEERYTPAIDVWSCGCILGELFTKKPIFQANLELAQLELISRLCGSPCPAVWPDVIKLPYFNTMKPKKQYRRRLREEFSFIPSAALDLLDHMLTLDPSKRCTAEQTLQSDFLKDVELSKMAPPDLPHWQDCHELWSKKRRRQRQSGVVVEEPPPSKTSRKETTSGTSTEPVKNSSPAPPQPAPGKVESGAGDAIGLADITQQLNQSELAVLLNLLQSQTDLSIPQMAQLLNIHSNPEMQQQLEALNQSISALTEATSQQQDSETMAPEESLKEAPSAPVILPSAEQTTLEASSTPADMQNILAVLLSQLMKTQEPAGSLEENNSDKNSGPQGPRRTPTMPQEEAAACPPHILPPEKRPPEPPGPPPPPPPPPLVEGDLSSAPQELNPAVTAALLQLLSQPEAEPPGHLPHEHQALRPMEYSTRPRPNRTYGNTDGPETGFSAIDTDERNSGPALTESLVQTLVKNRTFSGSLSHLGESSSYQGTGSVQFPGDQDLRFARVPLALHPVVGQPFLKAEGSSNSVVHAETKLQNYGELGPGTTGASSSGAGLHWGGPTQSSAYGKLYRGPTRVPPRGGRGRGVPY
Experimental: HEK293 cells overexpressing a Cdk14-flag fusion protein were treated with candidate compounds for 4 hours. Cells were washed with PBS, harvested and lysed in Pierce IP buffer with protease and phosphatase inhibitors (Roche). […] To enhance pulldown, lysates were incubated at room temperature for an additional 2 hours. Lysates were then incubated with streptavidin agarose (Thermo scientific, cat. #20349) for 2 hours at 4° C. Beads were then washed 3 times with Pierce IP buffer, then boiled at 95° C. for 5 minutes in 2× LDS+10% β-mercaptoethanol. Proteins of interest engaged by the biotinylated compound were then assessed using western blotting. The results of the cellular pulldown protocol are provided in Tables 1 and 2A, 2B, 2C, and 2D below (Columns titled “CDK2 pulldown,” “CDK9 pulldown,” “CDK12 pulldown blocked,” “CDK14 pulldown blocked,” and “Cellular Potency Pulldown.”)

Cdk14 [3] = molecular target: T1, Cdk14; assay: Protein labeling and mass spectrometry analysis of recombinant Cdk14; assay type: binding; conditions: 10-fold molar excess of compound, 2 hours, room temperature
Target sequence in this assay (O94921 whole entry, the tested form may be a part): as the sequence (O94921 whole entry) above
Experimental: For each analysis, 5 μg protein was injected onto a self-packed reversed phase column ( 1/32″ O.D.×500 um I.D., 5 cm of POROS 50R2 resin). After desalting for four minutes, protein was eluted with an HPLC gradient (0-100% B in 4 minutes, A=0.2M acetic acid in water, B=0.2 M acetic acid in acetonitrile, flow rate=10 μL/min) into an LTQ ion trap mass spectrometer (ThermoFisher). […] After reconstituting in 50% acetonitrile, 1% formic acid, 100 mM ammonium acetate, peptides were analyzed by CE-MS using a ZipChip CE system and autosampler interfaced to a QExactive HF mass spectrometer.^7 (ThermoFisher Scientific, San Jose, CA). Peptide solution was loaded for 30 seconds and separation performed at 500 V/cm on an HR chip for 10 minutes with a background electrolyte consisting of 1% formic acid in 50% acetonitrile. Pressure assist was utilized and started at 1 minute. The mass spectrometer was operated in data dependent mode and subjected the 5 most abundant ions in each MS scan (60 k resolution, 1E6 target, lock mass enabled) to MS/MS (15 k resolution, 2E5 target, 100 ms max inject time). Dynamic exclusion was enabled with a repeat count of 1 and an exclusion time of 6 seconds. MS/MS data was extracted to .mgf using mulitplierz scripts^8,9 and searched against a forward-reverse human NCBI refseq database using Mascot version 2.2. […]

[4] = read-out: IC50 CDK2 Z′LYTE kinase assay
[5] = read-out: IC50 CDK16 Lanthascreen binding

pIC50 (CDK2/CycA; [4]) | pIC50 (HCT116 cells; Homo sapiens, HCT-116, 72 h) | pIC50 (Cdk14/CycY) | Cellular Potency by Pulldown (Cdk14 [1]) [nM] | pIC50 (Cdk14 [2]) | pIC50 (CDK16/CycY; [5]) | SMILES | pIC50 (CDK2/CycA; read-out: CDK2 IC50) | pIC50 (HCT116 cells) | CDK12 pulldown blocked (CDK12) | IC50 (Cdk14/CycY; read-out: CDK14 IC50 (nM) LanthaScreen) [nM] | MS labeling of CDK14* (Cdk14 [3]) [%] | CDK14 pulldown blocked (Cdk14 [1]) [nM] | pIC50 (CDK16/CycY; read-out: CDK16 IC50)
8.43 | 7.05 | 7.99 | 500 | 6.42 | 8.28 | CN(C)C/C=C/C(=O)Nc1cccc(S(=O)(=O)N2CCC(NC(=O)c3n[nH]cc3NC(=O)c3c(F)cc(F)cc3F)CC2)c1 [FMF-04-095-2, (E)-N-(1-((3-(4-(dimethylamino)but-2-enamido)phenyl)sulfonyl)piperidin-4-yl)-4-(2,4,6-trifluorobenzamido)-1H-pyrazole-3-carboxamide] | – | – | – | – | – | – | –
8.47 | 7.49 | 7.35 | 1000 | 7.44 | 7.94 | C=CC(=O)Nc1cccc(C(=O)N2CCC(NC(=O)c3n[nH]cc3NC(=O)c3c(Cl)cccc3Cl)CC2)c1 [FMF-03-196-1, N-(1-(3-acrylamidobenzoyl)piperidin-4-yl)-4-(2,6-dichlorobenzamido)-1H-pyrazole-3-carboxamide] | – | – | – | – | – | – | –
8.59 | 6.80 | 8.47 | 250 | 6.57 | 8.59 | CN(C)C/C=C/C(=O)Nc1cccc(S(=O)(=O)N2CCC(NC(=O)c3n[nH]cc3NC(=O)c3c(F)cccc3F)CC2)c1 [FMF-04-096-2, (E)-4-(2,6-difluorobenzamido)-N-(1-((3-(4-(dimethylamino)but-2-enamido)phenyl)sulfonyl)piperidin-4-yl)-1H-pyrazole-3-carboxamide] | – | – | – | – | – | – | –
7.28 | 7.85 | 7.17 | – | 6.25 | 6.95 | CN(C)C/C=C/C(=O)Nc1ccc(C(=O)Nc2ccc(NC(=O)c3n[nH]cc3NC(=O)c3c(Cl)cccc3Cl)cc2)cc1 [FMF-04-012-2, (E)-4-(2,6-dichlorobenzamido)-N-(4-(4-(4-(dimethylamino)but-2-enamido)benzamido)phenyl)-1H-pyrazole-3-carboxamide] | – | – | – | – | – | – | –
7.65 | 7.43 | 7.77 | 1000 | 6.47 | 7.25 | CN(C)C/C=C/C(=O)Nc1cccc(C(=O)Nc2ccc(NC(=O)c3n[nH]cc3NC(=O)c3c(Cl)cccc3Cl)cc2)c1 [FMF-03-206-1, (E)-4-(2,6-dichlorobenzamido)-N-(4-(3-(4-(dimethylamino)but-2-enamido)benzamido)phenyl)-1H-pyrazole-3-carboxamide] | – | – | – | – | – | – | –
7.30 | 8.05 | 7.96 | 100 | 6.25 | 7.89 | C=CC(=O)Nc1cccc(CN2CCC(NC(=O)c3n[nH]cc3NC(=O)c3c(Cl)cccc3OC)CC2)c1 [FMF-04-161-1, N-(1-(3-acrylamidobenzyl)piperidin-4-yl)-4-(2-chloro-6-methoxybenzamido)-1H-pyrazole-3-carboxamide] | – | – | – | – | – | – | –
6.78 | 8.15 | 7.19 | 500 | 5.83 | 6.92 | C=CC(=O)Nc1cccc(CN2CCC(NC(=O)c3n[nH]cc3NC(=O)c3c(F)cccc3F)CC2)c1 [FMF-04-160-1, N-(1-(3-acrylamidobenzyl)piperidin-4-yl)-4-(2,6-difluorobenzamido)-1H-pyrazole-3-carboxamide] | – | – | – | – | – | – | –
8.12 | 8.15 | 6.91 | – | < 6.00 | – | C=CC(=O)Nc1cccc(S(=O)(=O)N2CCC(NC(=O)c3n[nH]cc3NC(=O)c3c(F)cc(F)cc3F)CC2)c1 [FMF-04-095-1, N-(1-((3-acrylamidophenyl)sulfonyl)piperidin-4-yl)-4-(2,4,6-trifluorobenzamido)-1H-pyrazole-3-carboxamide] | – | – | – | – | – | – | –
8.55 | 7.64 | 8.59 | – | 7.37 | 8.92 | CN(C)C/C=C/C(=O)Nc1ccc(S(=O)(=O)N2CCC(NC(=O)c3n[nH]cc3NC(=O)c3c(Cl)cccc3Cl)CC2)cc1 [FMF-03-197-2, (E)-4-(2,6-dichlorobenzamido)-N-(1-((4-(4-(dimethylamino)but-2-enamido)phenyl)sulfonyl)piperidin-4-yl)-1H-pyrazole-3-carboxamide] | – | – | – | – | – | – | –
8.43 | 6.76 | < 6.00 | 250 | 6.62 | 8.55 | COc1cccc(F)c1C(=O)Nc1c[nH]nc1C(=O)NC1CCN(S(=O)(=O)c2cccc(NC(=O)/C=C/CN(C)C)c2)CC1 [FMF-04-097-2, (E)-N-(1-((3-(4-(dimethylamino)but-2-enamido)phenyl)sulfonyl)piperidin-4-yl)-4-(2-fluoro-6-methoxybenzamido)-1H-pyrazole-3-carboxamide] | – | – | – | – | – | – | –
8.53 | 6.99 | – | 1000 | – | 8.54 | CCOc1cccc(Cl)c1C(=O)Nc1c[nH]nc1C(=O)NC1CCN(S(=O)(=O)c2cccc(NC(=O)/C=C/CN(C)C)c2)CC1 [FMF-05-118-1, (E)-4-(2-chloro-6-ethoxybenzamido)-N-(1-((3-(4-(dimethylamino)but-2-enamido)phenyl)sulfonyl)piperidin-4-yl)-1H-pyrazole-3-carboxamide] | 8.54 | – | – | – | 50 | 1000 | 8.54
7.62 | 8.59 | 7.85 | – | 6.10 | 7.74 | CN(C)C/C=C/C(=O)Nc1ccc(CN2CCC(NC(=O)c3n[nH]cc3NC(=O)c3c(Cl)cccc3Cl)CC2)cc1 [FMF-03-199-2, (E)-4-(2,6-dichlorobenzamido)-N-(1-(4-(4-(dimethylamino)but-2-enamido)benzyl)piperidin-4-yl)-1H-pyrazole-3-carboxamide] | – | – | – | – | – | – | –
7.69 | 7.60 | 7.31 | 500 | 5.98 | 7.33 | C=CC(=O)Nc1cccc(S(=O)(=O)N2CCC(NC(=O)c3n[nH]cc3NC(=O)c3c(Cl)cc(Cl)cc3Cl)CC2)c1 [FMF-04-159-1, N-(1-((3-acrylamidophenyl)sulfonyl)piperidin-4-yl)-4-(2,4,6-trichlorobenzamido)-1H-pyrazole-3-carboxamide] | – | – | – | – | – | – | –
– | 6.94 | < 6.00 | – | 6.55 | – | C=CC(=O)Nc1cccc(S(=O)(=O)N2CCC(NC(=O)c3n[nH]cc3NC(=O)c3c(F)cccc3F)CC2)c1 [FMF-04-096-1, N-(1-((3-acrylamidophenyl)sulfonyl)piperidin-4-yl)-4-(2,6-difluorobenzamido)-1H-pyrazole-3-carboxamide] | – | – | – | – | – | – | –
– | 8.05 | 8.80 | – | 7.06 | – | C=CC(=O)Nc1cccc(S(=O)(=O)N2CCC(NC(=O)c3n[nH]cc3NC(=O)c3c(F)cccc3OC)CC2)c1 [FMF-04-097-1, N-(1-((3-acrylamidophenyl)sulfonyl)piperidin-4-yl)-4-(2-fluoro-6-methoxybenzamido)-1H-pyrazole-3-carboxamide] | – | – | – | – | – | – | –

SMILES | pIC50 (CDK2/CycA; [4]) | pIC50 (HCT116 cells; Homo sapiens, HCT-116, 72 h) | pIC50 (Cdk14/CycY) | Cellular Potency by Pulldown (Cdk14 [1]) [nM] | pIC50 (Cdk14 [2]) | pIC50 (CDK16/CycY; [5]) | pIC50 (CDK2/CycA; read-out: CDK2 IC50) | pIC50 (HCT116 cells) | CDK12 pulldown blocked (CDK12) | IC50 (Cdk14/CycY; read-out: CDK14 IC50 (nM) LanthaScreen) [nM] | MS labeling of CDK14* (Cdk14 [3]) [%] | CDK14 pulldown blocked (Cdk14 [1]) [nM] | pIC50 (CDK16/CycY; read-out: CDK16 IC50)
CN(C)C/C=C/C(=O)Nc1cccc(S(=O)(=O)N2CCC(NC(=O)c3n[nH]cc3NC(=O)c3c(Cl)cc(Cl)cc3Cl)CC2)c1 [FMF-04-159-2, (E)-N-(1-((3-(4-(dimethylamino)but-2-enamido)phenyl)sulfonyl)piperidin-4-yl)-4-(2,4,6-trichlorobenzamido)-1H-pyrazole-3-carboxamide] | 8.00 | 6.35 | 7.33 | 500 | 6.14 | 8.09 | 8.09 | 6.35 | slight | 46.6 | 100 | 500 | 8.00
